Results taken from ChEMBL document CHEMBL1151274, “Halogenated helianane derivatives from the sponge Spirastrella hartmani” (2005).
The source made the active and inactive calls. No cut-off for these calls is given here.

Tests used:
Format in all cases: functional
HT-29 = experiment: Cytotoxicity against human HT-29 cells by sulforhodamine B assay
A549 = experiment: Cytotoxicity against human A549 cells by sulforhodamine B assay
MDA-MB-231 = experiment: Cytotoxicity against human MDA-MB-231 cells by sulforhodamine B assay

Compound | GI50 (HT-29) [µM] | GI50 (A549) [µM] | GI50 (MDA-MB-231) [µM] | Activity (HT-29) | Activity (A549) | Activity (MDA-MB-231)
COc1cc2c(cc1O)CCN[C@]21CS[C@@H]2c3c(OC(C)=O)c(C)c4c(c3[C@H](COC1=O)N1[C@@H]2[C@H]2c3c(cc(C)c(OC)c3O)C[C@@H]([C@@H]1O)N2C)OCO4 [TRABECTEDIN] | 0.0197 | 0.0263 | 0.0184 |  |  | 
Cc1cc2c(cc1Br)[C@@H](C)CCCC(C)(C)O2 |  |  |  | inactive | inactive | inactive
Cc1cc2c(cc1Cl)[C@@H](C)CCCC(C)(C)O2 | 37.6 | 37.2 | 37.6 |  |  | 
